From ChEMBL document CHEMBL4725311, “Discovery of potent, orally bioavailable in vivo efficacious antagonists of the TLR7/8 pathway” (Bioorg Med Chem Lett, 2020) come the findings set out here.

Series [1] can be described thus: Cmax in BALB/c mouse at 20 mg/kg, po. Conditions: in vivo. In kind it is ADME, organism-based. Also noted: route oral, dose 20 mg/kg.
Series [2] is described as follows: Oral bioavailability in BALB/c mouse at 20 mg/kg. As to conditions: in vivo. Format: ADME, organism-based.
A short description of series [3]: AUC in BALB/c mouse at 20 mg/kg, po. In kind it is ADME, organism-based. On the set-up: dose 20 mg/kg. Conditions: in vivo.
The target of series [4] is T1, Toll-like receptor 9 (Homo sapiens, UniProt Q9NR96).
T1 sequence (Q9NR96 whole entry): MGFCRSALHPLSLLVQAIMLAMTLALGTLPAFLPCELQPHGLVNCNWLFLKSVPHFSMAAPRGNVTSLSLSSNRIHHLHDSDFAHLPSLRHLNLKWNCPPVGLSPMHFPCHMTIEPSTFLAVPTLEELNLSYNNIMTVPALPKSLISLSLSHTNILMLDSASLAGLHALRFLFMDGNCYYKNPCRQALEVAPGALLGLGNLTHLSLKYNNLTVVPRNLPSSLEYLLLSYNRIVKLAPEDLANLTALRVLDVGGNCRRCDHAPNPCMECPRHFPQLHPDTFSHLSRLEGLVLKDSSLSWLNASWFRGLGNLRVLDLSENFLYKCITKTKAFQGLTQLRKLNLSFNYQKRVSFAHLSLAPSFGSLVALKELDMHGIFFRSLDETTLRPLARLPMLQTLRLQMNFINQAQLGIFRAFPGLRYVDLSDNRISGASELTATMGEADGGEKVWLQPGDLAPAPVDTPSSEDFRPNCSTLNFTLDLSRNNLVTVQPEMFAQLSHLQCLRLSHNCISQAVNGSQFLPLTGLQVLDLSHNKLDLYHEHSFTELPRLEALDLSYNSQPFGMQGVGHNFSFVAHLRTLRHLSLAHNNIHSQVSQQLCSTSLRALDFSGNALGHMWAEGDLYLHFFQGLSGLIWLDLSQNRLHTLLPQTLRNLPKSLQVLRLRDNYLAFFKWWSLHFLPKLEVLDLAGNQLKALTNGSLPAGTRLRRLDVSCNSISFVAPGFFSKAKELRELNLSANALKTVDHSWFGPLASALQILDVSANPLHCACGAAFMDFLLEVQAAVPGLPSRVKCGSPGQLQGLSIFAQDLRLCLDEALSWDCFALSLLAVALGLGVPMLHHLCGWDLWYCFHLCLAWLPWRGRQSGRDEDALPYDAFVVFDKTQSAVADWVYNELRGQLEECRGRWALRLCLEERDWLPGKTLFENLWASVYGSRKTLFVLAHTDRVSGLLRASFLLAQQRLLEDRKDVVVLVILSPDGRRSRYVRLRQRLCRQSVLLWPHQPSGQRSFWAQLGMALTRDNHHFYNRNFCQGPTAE
Nature of the series: Antagonist activity at TLR9 in human PBMC assessed as inhibition of ODN2216-induced IFNalpha production. In kind it is tissue-based.

In series [5] the target is T2, Toll-like receptor 7 (Mus musculus, UniProt P58681).
T2 sequence (P58681 whole entry): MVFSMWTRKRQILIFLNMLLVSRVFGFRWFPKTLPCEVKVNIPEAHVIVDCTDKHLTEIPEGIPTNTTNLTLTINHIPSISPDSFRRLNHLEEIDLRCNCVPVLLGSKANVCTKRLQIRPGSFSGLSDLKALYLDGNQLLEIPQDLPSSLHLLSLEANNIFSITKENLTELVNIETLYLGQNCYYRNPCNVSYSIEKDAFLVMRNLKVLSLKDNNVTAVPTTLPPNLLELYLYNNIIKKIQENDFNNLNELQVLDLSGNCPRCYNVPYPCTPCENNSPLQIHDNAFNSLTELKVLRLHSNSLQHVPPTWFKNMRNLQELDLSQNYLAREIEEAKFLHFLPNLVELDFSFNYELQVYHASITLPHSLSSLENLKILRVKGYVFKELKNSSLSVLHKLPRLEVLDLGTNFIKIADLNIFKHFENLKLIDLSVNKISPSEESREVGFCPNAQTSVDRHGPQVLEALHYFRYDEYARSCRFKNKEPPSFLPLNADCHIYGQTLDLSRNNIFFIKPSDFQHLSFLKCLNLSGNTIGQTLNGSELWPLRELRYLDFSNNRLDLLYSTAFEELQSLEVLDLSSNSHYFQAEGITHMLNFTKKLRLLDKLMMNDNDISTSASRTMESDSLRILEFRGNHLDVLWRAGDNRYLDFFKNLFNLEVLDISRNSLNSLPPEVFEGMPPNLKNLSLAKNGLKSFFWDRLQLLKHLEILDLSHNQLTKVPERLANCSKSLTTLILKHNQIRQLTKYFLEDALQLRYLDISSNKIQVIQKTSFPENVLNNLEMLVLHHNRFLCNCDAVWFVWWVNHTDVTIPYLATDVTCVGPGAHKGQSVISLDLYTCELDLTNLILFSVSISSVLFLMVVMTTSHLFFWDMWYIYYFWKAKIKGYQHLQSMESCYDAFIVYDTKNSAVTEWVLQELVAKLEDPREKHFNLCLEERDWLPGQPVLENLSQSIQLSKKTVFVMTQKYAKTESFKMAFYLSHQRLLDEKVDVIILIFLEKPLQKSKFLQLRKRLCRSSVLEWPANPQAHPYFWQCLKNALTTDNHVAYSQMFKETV
Nature of the series: Antagonist activity at TLR7 in mouse splenocytes assessed as inhibition of ssRNA40-induced IL6 production. In kind it is cell-based, Splenocyte.

Series [6] in a line: Volume of distribution at steady state in BALB/c mouse at 5 mg/kg, iv. Conditions: in vivo, read-out: Vdss. In kind it is ADME, organism-based.

As a reminder, the Cmax is the highest concentration seen after dosing. The bioavailability is dose-corrected exposure relative to a reference, in per cent. A low value points to little systemic uptake. As a reminder, the AUC is concentration integrated over time. A high value points to high exposure. Broadly, the IC50 is the concentration needed to halve the response being measured. In series [1], `Cc1cc(-c2ccnc3[nH]ncc23)cnc1OCC12CCC(N)(CC1)CC2` yielded a Cmax of 3.23 µM. The compound further registered a bioavailability in series [2] of 75%. For the same compound, the AUC in series [3] was 29.6 µM·h. The IC50 in series [4] is 1000 nM; in series [5], 4 nM. In series [6], the Vd was 5.1 L/kg.
